Data taken from the supplement of paper PMC10307832.

Legend:
Assay in all cases: relative viability (nuclei count vs DMSO), 5 days (fraction); higher = more cells survive
[1] = system: LCLC-97TM1
Procedure, shortened: (§1)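 Relative viability is defined as nuclei in treated wells over nuclei in vehicle wells. Duplicate plates were run and medians reported. Lung cancer cell lines in 1536-well plates were dosed by pin tool one day after seeding, with one drug or with a fixed anchor-drug dose plus five library-drug doses (not always all listed) in √10 steps, and nuclei were counted after 5 days.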

[2] = system: NCI-H650
Procedure, shortened: as §1

[3] = system: H3255
Procedure, shortened: as §1

[4] = system: NCI-H520
Procedure, shortened: as §1

[5] = system: BEN
Procedure, shortened: as §1

[6] = system: NCI-H441
Procedure, shortened: as §1

[7] = system: NCI-H2023
Procedure, shortened: as §1

[8] = system: NCI-H596
Procedure, shortened: as §1

[9] = system: NCI-H460
Procedure, shortened: as §1

[10] = system: NCI-H1944
Procedure, shortened: as §1

[11] = system: PC-3 [JPC-3]
Procedure, shortened: as §1

[12] = system: NCI-H661
Procedure, shortened: as §1

[13] = system: NCI-H727
Procedure, shortened: as §1

[14] = system: NCI-H1651
Procedure, shortened: as §1

[15] = system: 201T
Procedure, shortened: as §1

[16] = system: A-427
Procedure, shortened: as §1

[17] = system: NCI-H2087
Procedure, shortened: as §1

[18] = system: CAL-12T
Procedure, shortened: as §1

[19] = system: NCI-H1915
Procedure, shortened: as §1

[20] = system: ABC-1
Procedure, shortened: as §1

[21] = system: LC-2-ad
Procedure, shortened: as §1

For CCN(CC)CCCCNc1ncc2cc(-c3cc(OC)cc(OC)c3)c(NC(=O)NC(C)(C)C)nc2n1 + Cc1nc(NC(=O)N2CCC[C@H]2C(N)=O)sc1-c1ccnc(C(C)(C)C(F)(F)F)c1 [Alpelisib] (partner 2 µM), the relative viability ([1]; first compound 0.03162 µM) was 0.265, the relative viability ([1]; first compound 0.1 µM) was 0.221 and the relative viability ([1]; first compound 0.3162 µM) was 0.216. For the same compound, the relative viability ([1]; first compound 1 µM) was 0.244, the relative viability ([2]; first compound 0.01 µM) was 1.04 and the relative viability ([2]; first compound 0.03162 µM) was 1.04. It also gave a relative viability ([2]; first compound 0.1 µM) of 1.21, a relative viability ([2]; first compound 0.3162 µM) of 1.09 and a relative viability ([2]; first compound 1 µM) of 0.865. For the same compound, the relative viability ([3]; first compound 0.01 µM) was 0.788, the relative viability ([3]; first compound 0.03162 µM) was 0.71 and the relative viability ([3]; first compound 0.1 µM) was 0.728. For the same compound, the relative viability ([3]; first compound 0.3162 µM) was 0.713, the relative viability ([3]; first compound 1 µM) was 0.689 and the relative viability ([4]; first compound 0.01 µM) was 1.07. The relative viability ([4]; first compound 0.03162 µM) was 0.898, the relative viability ([4]; first compound 0.1 µM) was 1.16 and the relative viability ([4]; first compound 0.3162 µM) was 0.662. The relative viability ([4]; first compound 1 µM) was 0.332, the relative viability ([5]; first compound 0.01 µM) was 1.17 and the relative viability ([5]; first compound 0.03162 µM) was 0.891. The relative viability ([5]; first compound 0.1 µM) was 0.882, the relative viability ([5]; first compound 0.3162 µM) was 1.12 and the relative viability ([5]; first compound 1 µM) was 0.801. The relative viability ([6]; first compound 0.01 µM) was 0.801, the relative viability ([6]; first compound 0.03162 µM) was 0.62 and the relative viability ([6]; first compound 0.1 µM) was 0.698. It also gave a relative viability ([6]; first compound 0.3162 µM) of 0.708, a relative viability ([6]; first compound 1 µM) of 0.773 and a relative viability ([7]; first compound 0.01 µM) of 0.685. It also gave a relative viability ([7]; first compound 0.03162 µM) of 0.608, a relative viability ([7]; first compound 0.1 µM) of 0.615 and a relative viability ([7]; first compound 0.3162 µM) of 0.676. For the same compound, the relative viability ([7]; first compound 1 µM) was 0.529, the relative viability ([8]; first compound 0.01 µM) was 0.528 and the relative viability ([8]; first compound 0.03162 µM) was 0.48. For the same compound, the relative viability ([8]; first compound 0.1 µM) was 0.478, the relative viability ([8]; first compound 0.3162 µM) was 0.549 and the relative viability ([8]; first compound 1 µM) was 0.368. For the same compound, the relative viability ([9]; first compound 0.01 µM) was 0.646, the relative viability ([9]; first compound 0.03162 µM) was 0.58 and the relative viability ([9]; first compound 0.1 µM) was 0.82. It also gave a relative viability ([9]; first compound 0.3162 µM) of 0.463, a relative viability ([9]; first compound 1 µM) of 0.399 and a relative viability ([10]; first compound 0.01 µM) of 0.884. For the same compound, the relative viability ([10]; first compound 0.03162 µM) was 0.842, the relative viability ([10]; first compound 0.1 µM) was 0.89 and the relative viability ([10]; first compound 0.3162 µM) was 0.95. The relative viability ([10]; first compound 1 µM) was 0.799, the relative viability ([11]; first compound 0.01 µM) was 1.03 and the relative viability ([11]; first compound 0.03162 µM) was 1.02. The relative viability ([11]; first compound 0.1 µM) was 0.99, the relative viability ([11]; first compound 0.3162 µM) was 1.05 and the relative viability ([11]; first compound 1 µM) was 1.07. For the same compound, the relative viability ([12]; first compound 0.01 µM) was 0.537, the relative viability ([12]; first compound 0.03162 µM) was 0.382 and the relative viability ([12]; first compound 0.1 µM) was 0.657. The relative viability ([12]; first compound 0.3162 µM) was 0.858, the relative viability ([12]; first compound 1 µM) was 0.535 and the relative viability ([13]; first compound 0.01 µM) was 0.586. For the same compound, the relative viability ([13]; first compound 0.03162 µM) was 0.449, the relative viability ([13]; first compound 0.1 µM) was 0.678 and the relative viability ([13]; first compound 0.3162 µM) was 0.579. The relative viability ([13]; first compound 1 µM) was 0.543, the relative viability ([14]; first compound 0.01 µM) was 0.938 and the relative viability ([14]; first compound 0.03162 µM) was 1. It also gave a relative viability ([14]; first compound 0.1 µM) of 1.1, a relative viability ([14]; first compound 0.3162 µM) of 1.13 and a relative viability ([14]; first compound 1 µM) of 0.844. The relative viability ([15]; first compound 0.01 µM) was 1.05, the relative viability ([15]; first compound 0.03162 µM) was 1.01 and the relative viability ([15]; first compound 0.1 µM) was 1.09. For the same compound, the relative viability ([15]; first compound 0.3162 µM) was 1.1, the relative viability ([15]; first compound 1 µM) was 0.97 and the relative viability ([16]; first compound 0.01 µM) was 1.08. It also gave a relative viability ([16]; first compound 0.03162 µM) of 1.08, a relative viability ([16]; first compound 0.1 µM) of 1.1 and a relative viability ([16]; first compound 0.3162 µM) of 1.1. It also gave a relative viability ([16]; first compound 1 µM) of 0.903, a relative viability ([17]; first compound 0.01 µM) of 1.12 and a relative viability ([17]; first compound 0.03162 µM) of 1.03. For the same compound, the relative viability ([17]; first compound 0.1 µM) was 1.53, the relative viability ([17]; first compound 0.3162 µM) was 1.23 and the relative viability ([17]; first compound 1 µM) was 1.15. For the same compound, the relative viability ([18]; first compound 0.01 µM) was 1.35, the relative viability ([18]; first compound 0.03162 µM) was 1.24 and the relative viability ([18]; first compound 0.1 µM) was 1.14. The relative viability ([18]; first compound 0.3162 µM) was 1.49, the relative viability ([18]; first compound 1 µM) was 0.902 and the relative viability ([19]; first compound 0.01 µM) was 1.07. For the same compound, the relative viability ([19]; first compound 0.03162 µM) was 1.15, the relative viability ([19]; first compound 0.1 µM) was 1.06 and the relative viability ([19]; first compound 0.3162 µM) was 1.14. It also gave a relative viability ([19]; first compound 1 µM) of 1.07, a relative viability ([20]; first compound 0.01 µM) of 1.2 and a relative viability ([20]; first compound 0.03162 µM) of 0.997. The relative viability ([20]; first compound 0.1 µM) was 1.06, the relative viability ([20]; first compound 0.3162 µM) was 1.47 and the relative viability ([20]; first compound 1 µM) was 1.13. The relative viability ([21]; first compound 0.01 µM) was 1.03, the relative viability ([21]; first compound 0.03162 µM) was 0.918 and the relative viability ([21]; first compound 0.1 µM) was 0.942. It also gave a relative viability ([21]; first compound 0.3162 µM) of 1.07 and a relative viability ([21]; first compound 1 µM) of 0.865.
